The results in this text go back to patent US10266537B2, “3-acetylenyl-pyrazole-pyrimidine derivative, and preparation method therefor and uses thereof” (Si Chuan University, priority 2015, dated 2019).

One experiment concerns MDA-MB-435. The experiment can be described thus: Cell proliferation inhibition assay (MTT). In kind it is cell-based, human. To be noted: Homo sapiens; MDA-MB-435; MTT, 72 hours; read-out: Proliferative inhibitory activity MDA-MB-435 (IC50 class).
The subject of the next experiment is MDA-MB-231. The experiment can be described thus: Cell proliferation inhibition assay (MTT). The experiment is classed as cell-based, human. Conditions: Homo sapiens; MDA-MB-231; MTT, 72 hours; read-out: Proliferative inhibitory activity MDA-MB-231 (IC50 class).

pIC50: −log10 of the molar value.

Method for MDA-MB-231: (§1) The remaining cell lines were cultured in DMEM complete medium containing 10% fetal bovine serum (MV4-11 cells 20%), 100 U/ml penicillin, 100 μg/mL streptomycin at 5% CO2, and 37° C.
(§2) The cells were seeded in 96-well plates with 200 μL of cell suspension per well and incubated overnight in a cell culture medium with a cell concentration of 1˜2×10^4 cells/mL. The next day, the supernatant was discarded (the suspension cell was centrifuged before it) and the cells were treated with gradient concentrations of the test compound, respectively. At the same time, the drug-free negative control group and the equal volume of solvent control group, DMSO concentration of 0.1%, each dose group set up three wells, 37° C., 5% CO2 conditions. After 72 hours, add 20 μL of MTT reagent at a concentration of 5 mg/mL per well. After incubation for 2-4 h, the supernatant was discarded and 150 μL of DMSO was added to each well. […] Determine the absorbance (A) value (λ=570 nm, A value is proportional to the number of living cells), whichever is the average. […] The experiment was repeated at least 3 times. Experimental data were expressed as mean, data statistics using t test, P<0.05 for the difference was statistically significant. The inhibitory effects of the following compounds on cell proliferation were expressed as IC50 or inhibition rates.
Method for MDA-MB-435: as §1, §2

The term pIC50 denotes the IC50 on a negative log10 scale, so that one unit is a factor of ten. For the compound `Cc1ccc(NC(=O)c2ccc(F)c(C(F)(F)F)c2)cc1C#Cc1nn(C2CCN(C)CC2)c2ncnc(N)c12` [Compound 47], the pIC50 with MDA-MB-435 and in the experiment with MDA-MB-231 was 6.00 to 6.30 each time.

For `Cc1ccc(NC(=O)c2cccc(C(F)(F)F)c2F)cc1C#Cc1nn(C2CCN(C)CC2)c2ncnc(N)c12` [Compound 48], the pIC50 with MDA-MB-435 and with MDA-MB-231 was 6.30 to 7.00 in each case.

Regarding `Cc1ccc(NC(=O)c2cccc(Cl)c2)cc1C#Cc1nn(C2CCN(C)CC2)c2ncnc(N)c12` [Compound 49], the negative logarithm of the IC50 (pIC50) is 6.00 to 6.30 with MDA-MB-435 and greater than 7.00 in the experiment with MDA-MB-231.

With `Cc1ccc(NC(=O)c2cc(C(F)(F)F)ccc2F)cc1C#Cc1nn(C2CCN(C)CC2)c2ncnc(N)c12` [Compound 50], the pIC50 with MDA-MB-435 and in the experiment with MDA-MB-231 was 6.30 to 7.00 throughout.

For `Cc1ccc(NC(=O)c2cc(F)cc(C(F)(F)F)c2)cc1C#Cc1nn(C2CCN(C)CC2)c2ncnc(N)c12` [Compound 51], the negative logarithm of the IC50 (pIC50) in the experiment on MDA-MB-435 was less than 6.00; in the experiment with MDA-MB-231, 6.00 to 6.30.

Turning to `Cc1ccc(NC(=O)c2cccc(OC(F)(F)F)c2)cc1C#Cc1nn(C2CCN(C)CC2)c2ncnc(N)c12` [Compound 52], the negative logarithm of the IC50 (pIC50) in the experiment on MDA-MB-435 and with MDA-MB-231 was greater than 7.00 in each case.

For the compound `Cc1ccc(NC(=O)c2ccc(Cl)cc2)cc1C#Cc1nn(C2CCN(C)CC2)c2ncnc(N)c12` [Compound 53], the negative logarithm of the IC50 (pIC50) in the experiment on MDA-MB-435 was 6.30 to 7.00; in the experiment on MDA-MB-231, greater than 7.00.

Turning to `Cc1ccc(NC(=O)c2cc(C(F)(F)F)cc(C(F)(F)F)c2)cc1C#Cc1nn(C2CCN(C)CC2)c2ncnc(N)c12` [Compound 54], the pIC50 in the experiment with MDA-MB-435 and in the experiment with MDA-MB-231 was greater than 7.00 each time.

Turning to `Cc1cccc(C(=O)Nc2ccc(C)c(C#Cc3nn(C4CCN(C)CC4)c4ncnc(N)c34)c2)c1` [Compound 55], the negative logarithm of the IC50 (pIC50) with MDA-MB-435 and in the experiment on MDA-MB-231 was 6.30 to 7.00 each time.

As for `Cc1ccc(NC(=O)c2cc(C(F)(F)F)cc(Cl)c2F)cc1C#Cc1nn(C2CCN(C)CC2)c2ncnc(N)c12` [Compound 56], the pIC50 with MDA-MB-435 and with MDA-MB-231 was less than 6.00 in each case.

For the compound `Cc1ccc(NC(=O)c2cccc(C(F)(F)F)n2)cc1C#Cc1nn(C2CCN(C)CC2)c2ncnc(N)c12` [Compound 57], the results for the pIC50 in the experiment with MDA-MB-435 and with MDA-MB-231 were less than 6.00 and 6.00 to 6.30, respectively.

As to `Cc1ccc(NC(=O)c2cncc(C(F)(F)F)c2)cc1C#Cc1nn(C2CCN(C)CC2)c2ncnc(N)c12` [Compound 58], the figures for the pIC50 with MDA-MB-435 and with MDA-MB-231 were greater than 7.00 and 6.30 to 7.00, respectively.

On to `Cc1ccc(NC(=O)c2ccnc(C(F)(F)F)c2)cc1C#Cc1nn(C2CCN(C)CC2)c2ncnc(N)c12` [Compound 59], for which the negative-log IC50 (pIC50) in the experiment with MDA-MB-435 and with MDA-MB-231 was 6.30 to 7.00 throughout.

On to `Cc1ccc(NC(=O)c2ccc(Cl)c(Cl)c2)cc1C#Cc1nn(C2CCN(C)CC2)c2ncnc(N)c12` [Compound 60], for which the pIC50 with MDA-MB-435 was 6.00 to 6.30; in the experiment on MDA-MB-231, 6.30 to 7.00.

In the case of `Cc1ccc(C(=O)Nc2cc(C(C)(C)C)nn2C)cc1C#Cc1nn(C2CCN(C)CC2)c2ncnc(N)c12` [Compound 61], the pIC50 in the experiment with MDA-MB-435 and in the experiment with MDA-MB-231 was 6.30 to 7.00 throughout.

As to `Cc1ccc(C(=O)Nc2cc(C(C)(C)C)on2)cc1C#Cc1nn(C2CCN(C)CC2)c2ncnc(N)c12` [Compound 62], the pIC50 with MDA-MB-435 and with MDA-MB-231 was greater than 7.00 in each case.

Regarding `Cc1ccc(NC(=O)c2cc(C(C)(C)C)nn2C)cc1C#Cc1nn(C2CCN(C)CC2)c2ncnc(N)c12` [Compound 63], the negative-log IC50 (pIC50) in the experiment on MDA-MB-435 was greater than 7.00; in the experiment with MDA-MB-231, 6.30 to 7.00.

For the compound `Cc1ccc(NC(=O)c2cc(C(C)(C)C)on2)cc1C#Cc1nn(C2CCN(C)CC2)c2ncnc(N)c12` [Compound 64], the negative-log IC50 (pIC50) was greater than 7.00 with MDA-MB-435 and 6.30 to 7.00 in the experiment with MDA-MB-231.

Take `Cc1ccc(NC(=O)c2nc(C(C)(C)C)cs2)cc1C#Cc1nn(C2CCN(C)CC2)c2ncnc(N)c12` [Compound 65]: the pIC50 in the experiment on MDA-MB-435 and with MDA-MB-231 was greater than 7.00 in each case.

`Cc1ccc(NC(=O)c2cc(Cl)cc(C(F)(F)F)c2)cc1C#Cc1nn(C2CCN(C)CC2)c2ncnc(N)c12` [Compound 66]: the pIC50 with MDA-MB-435 and in the experiment on MDA-MB-231 was greater than 7.00 in each case.

As for `Cc1ccc(NC(=O)c2ccc(Cl)c(C(F)(F)F)c2)cc1C#Cc1nn(C2CCN(C)CC2)c2ncnc(N)c12` [Compound 67], the pIC50 in the experiment with MDA-MB-435 and in the experiment with MDA-MB-231 was greater than 7.00 in each case.

`Cc1ccc(NC(=O)c2cc(Cl)cc(Cl)c2)cc1C#Cc1nn(C2CCN(C)CC2)c2ncnc(N)c12` [Compound 68]: the negative logarithm of the IC50 (pIC50) in the experiment with MDA-MB-435 and in the experiment with MDA-MB-231 was 6.30 to 7.00 in each case.

With `Cc1ccc(NC(=O)c2ccc(Cl)c(C(F)(F)F)c2)cc1C#Cc1nn(CC2CCN(C)C2)c2ncnc(N)c12` (centres unmarked) [Compound 69], the pIC50 in the experiment on MDA-MB-435 is less than 6.00; in the experiment with MDA-MB-231, greater than 7.00.

With `Cc1ccc(NC(=O)c2ccc(Cl)c(C(F)(F)F)c2)cc1C#Cc1nn(C2CCN(C(=O)[C@H](C)O)CC2)c2ncnc(N)c12` [Compound 70], the pIC50 was 6.00 to 6.30 in the experiment on MDA-MB-435 and greater than 7.00 in the experiment with MDA-MB-231.

In the case of `Cc1ccc(NC(=O)c2ccc(Cl)c(C(F)(F)F)c2)cc1C#Cc1nn(C2CCN(C(=O)[C@@H](C)O)CC2)c2ncnc(N)c12` [Compound 71], the pIC50 with MDA-MB-435 and in the experiment on MDA-MB-231 was greater than 7.00 in each case.
